From US20040097422A1, “Methods of use for tripeptidyl peptidase II inhibitors as anticancer agents” (priority 2002, published 2004) come the findings set out here.

Entries after “also recorded” stand apart in the source; their conditions may differ. Residues, ends and D or L forms follow the SMILES beside them. *: point of attachment. CH2Cl = ClC* Bounds are passed on as bounds.

What all share (format): cell-based, human
The test system of assay [1] is U20S/centrin-GFP cells. Description: Abnormal centriole numbers in transiently transfected U20S/centrin-GFP cells after inhibitor treatment. The text has this:
(§1) Cell Culture and Transfections. Normal human keratinocytes (NHKs) were isolated from neonatal foreskins and cultured as described previously (Jones, et al. 1997 Genes Dev 11, 2101-11). NHKs were transiently transfected using FuGENE 6 (Roche Molecular Biochemicals, Indianapolis, Ind.) according to manufacturer's instructions. The human osteosarcoma cell line U20S was obtained from the American Type Culture Collection (ATCC) and maintained in Dulbecco's modified Eagle medium (DMEM) supplemented with 10% fetal bovine serum, 50 units/ml penicillin and 50 μg/ml streptomycin. Stable populations expressing centrin-GFP were generated by transfecting U20S cells with 10 μg of a centrin-GFP construct using calcium phosphate co-precipitation (Chen, et al. 1987 Mol Cell Biol 7, 2745-2752) and expansion of stable clones after G418 selection. All transient transfection experiments in U20S/centrin-GFP cells were performed using calcium phosphate coprecipitation (Chen, 1987 Mol Cell Biol 7, 2745-2752). Expression plasmids used were c-Myc, E2F-1, HPV-16 E7, HPV-16 E6, or a hemagglutinin-tagged dominant-negative DP1 mutant (DP 1-HA). Empty vector controls (pCMVneo) were included in all experiments. In all transient transfection experiments, cells were co-transfected with either farnesylatable green fluorescent protein (GFP), DsRed fluorescent protein, or cyan fluorescent protein (CFP; all from Clontech, Inc., Palo Alto, Calif.) as indicated and only cells expressing the respective fluorescent protein were evaluated. The human Burkitt's lymphoma cell line GA-10 was obtained from ATCC and maintained in RPMI 1640 medium containing 10 mM HEPES and supplemented with 10% fetal bovine serum, 50 units/ml penicillin and 50 μg/ml streptomycin. Adapted GA-10 cells were obtained by cultivation of cells in the presence of 1 μM clastolactacystin β-lactone (CLBL; Sigma Corp., St. Louis, Mo.) or 0.1% dimethyl sulfoxide (DMSO; ICN, Inc., Costa Mesa, California).
Proteasome and TPPII inhibition. U20S/centrin-GFP cells were transiently transfected with expression plasmids as indicated using calcium phosphate coprecipitation, washed with PBS 14 hours after transfection, incubated in normal growth media for 8 hours, and incubated in the presence of the inhibitor for another 24 hours. For proteasome inhibition, clastolactacystin β-lactone (CLBL; Sigma Corp.) was used at a […] concentration dissolved in DMSO. The TPPII inhibitor H-Ala-Ala-Phe-chloromethylketone (AAF-CMK; Sigma Corp.) was used at a 1 or 10 μM concentration, respectively, dissolved in DMSO. TPPII inhibitors such as AAF-MCA (ala-ala-phe-methylcoumarin amide) are available from Peptides International, Inc., Louisville, Ky. […] Solvent controls (DMSO or water) were included in all experiments.
Whether this observed increase of cells with abnormal centrosome numbers results from a primary duplication error was further addressed by analyzing the ability of c-Myc to induce abnormal centriole synthesis under transient conditions. Centriole number abnormalities induced by c-Myc were compared to those obtained with different oncogenic stimuli which have been reported previously to deregulate centrosome duplication (Duensing, 2000 Proc Natl Acad USA 97, 10002-7). Besides c-Myc, each of HPV-16 E7, the cooperating oncogene HPV-16 E6, and E2F-1 were included in these experiments. U20S/centrin-GFP cells were transiently transfected with expression plasmids as indicated, and mitochondrial DsRed fluorescent protein was used as a transfection marker (FIGS. 2c,d). Since duplication of centrioles prior to a cell division gives rise to four centrioles, cells with more than four centrioles were considered to have an abnormal number of centrioles.
Analogous to cell cycle progression, centrosome duplication requires activity of the ubiquitin/proteasome machinery (Freed, et al. 1999 Gene Dev 13, 2242-57). […]

The test system of assay [2] is U20S/centrin-GFP cells. Description: DNA content / cell cycle profile by propidium iodide flow cytometry. To be noted: 10 μM, 24 hours. The protocol: Flow cytometry. DNA content of cells was analyzed by propidium iodide staining followed by flow cytometry as described previously (Thompson, et al. 1997 Oncogene 15, 3025-35).
Background: A flow cytometer gives signals particle by particle.

For assay [3], the system named is Burkitt's lymphoma cell line GA-10. Description: Viability of GA-10 cells grown with proteasome inhibitor (trypan blue exclusion). The method, then:
FIG. […] FIG. 5b is an immunoblot analysis of TPPII and c-Myc expression in GA-10 cells adapted to grow in the presence of 1 μM CLBL or 0.1% DMSO. FIG. 5c is a visualizations of centrosomes in GA-10 cells adapted to grow in the presence of 0.1% DMSO (c) or 1 μM CLBL right. Immunofluorescence for γ-tubulin is rhodamine red. Nuclei were stained with DAPI. […] Each bar indicates average+standard error of triplicate colony counts.
as §1, with “The human Burkitt's lymphoma cell line GA-10 was obtained from ATCC and maintained in RPMI 1640 medium containing 10 mM HEPES and supplemented with 10% fetal bovine serum, 50 units/ml penicillin and 50 μg/ml streptomycin. Adapted GA-10 cells were obtained by cultivation of cells in the presence of 1 μM clastolactacystin β-lactone (CLBL; Sigma Corp., St. Louis, Mo.) or 0.1% dimethyl sulfoxide (DMSO; ICN, Inc., Costa Mesa, California).” left out

Assay [4] deals with GA-10 cells. Description: Abnormal centrosome numbers in GA-10 cells by γ-tubulin immunofluorescence. To be noted: GA-10 cells adapted to 1 μM CLBL; untreated 18.7%, DMSO 19.9%. The protocol:
For immunofluorescence analysis, sections of formalin-fixed, paraffin-embedded tissue were processed as described previously (Duensing, 2000 Proc Natl Acad 801 USA 97, 10002-7). Cultured cells were either grown on coverslips or cytospin preparations were made from cells growing in suspension. Cells were fixed in 4% paraformaldehyde in PBS and permeabilized with 1% Triton-X 100 in PBS for 10 min each at room temperature. […] Ki-67 was detected using a mouse monoclonal antibody (clone Ki-67; Dako Cytomation California, Inc., Carpinteria, California) at a 1:100 dilution followed by a rhodomine red-labeled donkey anti-mouse secondary antibody as described above. […] Cells were analyzed using a Leica DMLB epifluorescence microscope equipped with a multiband and a CFP filter set (Omega Optical, Brattleboro, Vt.) and a Sony DKC5000 camera system. […]
The proportion of cells with abnormal centrosome numbers was determined using immunofluorescence microscopy for γ-tubulin. […]

The subject of assay [5] is TPPII. The assay can be described thus: TPPII protein level in adapted GA-10 cells (immunoblot). To be noted: GA-10 cells adapted to 1 μM CLBL. The method, then:
Immunological Methods. Immunoblot analysis was performed as described previously (Jones et al., 1997). Antibodies used were directed against c-Myc (9E10; Covance/Babco, Berkeley, California), p53 (Ab-6; Oncogene Research Products, Inc., San Diego, Calif.), HPV-16 E7 (ED17; Santa Cruz Biotechnology, Inc., Santa Cruz, California), E2F-1 (C-20; Santa Cruz), HA (12CA5; Boehringer Mannheim, Mannheim, Germany), tripetidyl peptidase II (OEM Concepts, Inc.; Toms River, New Jersey), or Actin (C-2, Santa Cruz).
Based on observations herein that TPPII is required for c-Myc induced abnormal centriole duplication, the effect of growth of cells in the presence of a proteasome inhibitor on altered centrosome numbers, control of centrosome duplication, and cell viability was examined. Cells of a human t(8;14) positive, Epstein-Barr virus (EBV) negative Burkitt's lymphoma cell line GA-10 were used. Cells were grown in the presence of 1 μM CLBL (proteosome inhibitor clastolactacystin β-lactone) or with 0.1% DMSO as a solvent control.
On the technique in general: Immunoblotting shows a protein as a band on a membrane.

The test system of assay [6] is U20S/centrin-GFP cells. The assay can be described thus: Simultaneous Ki-67 proliferation and centriole number assay in c-Myc transfected cells. To be noted: 10 μM butabindide for 24 hours. The method, then: For immunofluorescence analysis, sections of formalin-fixed, paraffin-embedded tissue were processed as described previously (Duensing, 2000 Proc Natl Acad 801 USA 97, 10002-7). Cultured cells were either grown on coverslips or cytospin preparations were made from cells growing in suspension. Cells were fixed in 4% paraformaldehyde in PBS and permeabilized with 1% Triton-X 100 in PBS for 10 min each at room temperature. Cells were then blocked with 10% normal donkey serum (Jackson Immunoresearch, West Grove, Pa.) and incubated with a mouse monoclonal anti-γ-tubulin antibody (GTU-88; Sigma Corp.; St. Louis, Mo.) at a 1:2000 dilution overnight at 4° C. followed by a donkey anti-mouse rhodamine red conjugated secondary antibody (Jackson ImmunoResearch Laboratories, Inc., West Grove, Pa.) at a 1:100 dilution in PBS or a donkey anti-mouse FITC labeled secondary antibody at a 1:200 dilution in PBS for 2 hours at 37° C. Ki-67 was detected using a mouse monoclonal antibody (clone Ki-67; Dako Cytomation California, Inc., Carpinteria, California) at a 1:100 dilution followed by a rhodomine red-labeled donkey anti-mouse secondary antibody as described above. […] Cells were analyzed using a Leica DMLB epifluorescence microscope equipped with a multiband and a CFP filter set (Omega Optical, Brattleboro, Vt.) and a Sony DKC5000 camera system. […]

Assay [7] concerns CLBL-adapted Burkitt's lymphoma cells. Description: Mitotic spindle formation / centrosome function. Particulars: butabindide treated. The protocol: (§2) FIG. 5a is an analysis of viability of GA-10 cells grown in the presence of 1 μM CLBL or solvent control (0.1% DMSO) as determined by trypan blue exclusion. FIG. 5b is an immunoblot analysis of TPPII and c-Myc expression in GA-10 cells adapted to grow in the presence of 1 μM CLBL or 0.1% DMSO. FIG. 5c is a visualizations of centrosomes in GA-10 cells adapted to grow in the presence of 0.1% DMSO (c) or 1 μM CLBL right. Immunofluorescence for γ-tubulin is rhodamine red. Nuclei were stained with DAPI. […] Each bar indicates average+standard error of triplicate colony counts.
(§3) Centrosome duplication is necessary for orderly progression through mitosis and re-entry in the cell cycle (Hinchcliffe, et al. 2001 Genes Dev 15, 1167-81) in most mammalian cells. Whether TPPII activity is necessary for the growth of CLBL-adapted Burkitt's lymphoma cells was investigated.

Assay [8] concerns CLBL-adapted GA-10 cells. Description: Growth (viable cell number) of CLBL-adapted GA-10 cells. To be noted: 0.1, 1.0, 10, 100 or 500 μM butabindide. The protocol:
as §2, §3

The test system of assay [9] is CLBL-adapted GA-10 cells. The assay can be described thus: Soft agar colony formation (clonogenic assay). Particulars: 10 μM butabindide, one week. The method, then: Clonogenic assay. For assessment of soft agar colony formation, adapted GA-10 cells were suspended in 37° C.
as §3

With `C[C@H](N)C(=O)N[C@@H](C)C(=O)N[C@@H](Cc1ccccc1)C(=O)CCl` [AAF-CMK, H-Ala-Ala-Phe-chloromethylketone] (H-Ala-Ala-Phe-CH2Cl), the “Significance of decrease in abnormal centriole numbers, c-Myc transfected cells” value in assay [1] (1 μM AAF-CMK, p≦0.05) was “statistically significant”. In addition, the “Changes in abnormal centriole numbers in E2F-1 or HPV-16 E7 expressing cells” value in [1] (E2F-1 or HPV-16 E7 transfected, AAF-CMK for 24 hours) is on record as “not significant”. Further, the “Proportion of c-Myc expressing cells with abnormal centriole numbers” value in assay [1] (c-Myc transfected, 1 and 10 μM AAF-CMK for 24 hours) is “Reduction of the proportion of c-Myc expressing cells with abnormal centriole numbers”. Further, the “Cell cycle profile (DNA content)” value in [2] is listed as “neither treatment of cells with 10 μM AAF-CMK, nor with 10 μM butabindide, was found to substantially alter the cell cycle profile”.

For `CC(C)[C@H](O)[C@@]12NC(=O)[C@H](C)[C@@H]1OC2=O` [CLBL, clastolactacystin β-lactone], in [3] (1 μM CLBL), the “Cell viability of GA-10 cells” value is on record as “marked decrease of cell viability” and the “Time until cell survival was restored” value is listed as not above 10 days. Further, the “Cell viability of GA-10 cells at higher concentrations” value in assay [3] (higher concentrations of CLBL than 1 μM) was “massive cell death”. Further, the “Proportion of cells with abnormal centrosome numbers” value in [4] is on record as 19.4%. For the same molecule, the “Decrease of abnormal centriole duplication driven by E2F-1” value in assay [1] (E2F-1 transfected, 0.8 mM CLBL for 24 hours, p≦0.05) stood at 1.7 fold. Further, the “Decrease of abnormal centriole duplication driven by HPV-16 E7” value in assay [1] (HPV-16 E7 transfected, 0.8 mM CLBL for 24 hours, p≦0.01) worked out at 2 fold. In assay [1] (c-Myc transfected, 0.8 mM CLBL for 24 hours), the “Proportion of cells with abnormal centriole numbers in cells expressing c-Myc” value is “did not significantly reduce”. Further, in [5], the “Protein levels of TPPII” value is “increased protein levels of TPPII”.

As for `CCCCNC(=O)[C@@H]1Cc2ccccc2N1C(=O)[C@@H](N)CC` [butabindide], the “Ki-67 negative growth arrested cells” value in [6] is given as “major increases of Ki-67 negative growth arrested cells were not observed”. In assay [6] (CFP transfection marker), the “Number of c-Myc expressing cells with abnormal centriole numbers (mostly Ki-67 positive)” value was “decrease in the number of c-Myc expressing cells with abnormal centriole numbers”. Moreover, the “Spindle formation in treated cells” value in assay [7] is reported as “abrogation of spindle formation”. Also, the “Cells unable to nucleate a microtubule spindle” value in assay [7] (44% without) is on record as 66%. Also, the “Number of c-Myc expressing cells with abnormal centriole numbers” value in assay [1] (c-Myc transfected, butabindide increasing concentrations up to 10 μM, 24 hours, p≦0.001) was “dose-dependent and statistically highly significant reduction; also recorded: completely blocks abnormal centriole duplication”. The “Cell cycle profile (DNA content)” value in assay [2] is reported as “neither treatment of cells with 10 μM AAF-CMK, nor with 10 μM butabindide, was found to substantially alter the cell cycle profile”. In addition, the “Growth of CLBL-adapted GA-10 cells” value in assay [8] is recorded as “reduced the growth of CLBL-adapted GA-10 cells in a dose dependent manner”. The “Colony formation in soft agar” value in assay [9] is listed as “significantly suppressed colony formation”.
